In patent US9802937B2, “Substituted pyrazolo{4,3-D}pyrimidines as kinase inhibitors” (ORIGENIS GMBH, priority 2011, dated 2017):

Key:
[1] = molecular target: T1, SYK kinase (Homo sapiens, UniProt P43405); test: SYK Assay (OMNIA KINASE ASSAY, SOX peptide fluorescence); format: biochemical; settings: apparent Ki calculated from the IC50 using the Cheng-Prusoff equation; 1 mM ATP, 30° C.; read-out: SYK Activities: Ki
T1 construct: purchased Invitrogen, Carlsbad
How it was run: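 Apparent Ki values are derived by Cheng-Prusoff from IC50s of sigmoidal fits of reaction rate against compound concentration. Rates come from chelation-enhanced SOX fluorescence (λex 360/λem 485 nm, read every 30 s over 30 min) as the kinase phosphorylates 10 µM Omnia Tyr 7 peptide at 30 °C, with 1 mM ATP and 0.2 mM DTT.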

[2] = molecular target: LRRK2 (Homo sapiens, UniProt Q5S007); test: LRRK2-LRRK2 G2019S-Assay (LanthaScreen Eu Kinase Binding Assay); settings: 5 nM LRRK2 or their mutants, 10 nM tracer 236, RT 1 h; read-out: LRRK2 Activities: IC50
How it was run: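 Kinase (wild type or mutant, 5 nM) mixed with Eu-anti-GST antibody (2 nM), then 10 nM Alexa Fluor 647 tracer 236 added. After 1 h at room temperature, the acceptor/donor (665/615 nm) FRET ratio was measured. IC50 was fitted from concentration–ratio curves.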

Chain of LRRK2 (Q5S007 970-2527 limits assumed): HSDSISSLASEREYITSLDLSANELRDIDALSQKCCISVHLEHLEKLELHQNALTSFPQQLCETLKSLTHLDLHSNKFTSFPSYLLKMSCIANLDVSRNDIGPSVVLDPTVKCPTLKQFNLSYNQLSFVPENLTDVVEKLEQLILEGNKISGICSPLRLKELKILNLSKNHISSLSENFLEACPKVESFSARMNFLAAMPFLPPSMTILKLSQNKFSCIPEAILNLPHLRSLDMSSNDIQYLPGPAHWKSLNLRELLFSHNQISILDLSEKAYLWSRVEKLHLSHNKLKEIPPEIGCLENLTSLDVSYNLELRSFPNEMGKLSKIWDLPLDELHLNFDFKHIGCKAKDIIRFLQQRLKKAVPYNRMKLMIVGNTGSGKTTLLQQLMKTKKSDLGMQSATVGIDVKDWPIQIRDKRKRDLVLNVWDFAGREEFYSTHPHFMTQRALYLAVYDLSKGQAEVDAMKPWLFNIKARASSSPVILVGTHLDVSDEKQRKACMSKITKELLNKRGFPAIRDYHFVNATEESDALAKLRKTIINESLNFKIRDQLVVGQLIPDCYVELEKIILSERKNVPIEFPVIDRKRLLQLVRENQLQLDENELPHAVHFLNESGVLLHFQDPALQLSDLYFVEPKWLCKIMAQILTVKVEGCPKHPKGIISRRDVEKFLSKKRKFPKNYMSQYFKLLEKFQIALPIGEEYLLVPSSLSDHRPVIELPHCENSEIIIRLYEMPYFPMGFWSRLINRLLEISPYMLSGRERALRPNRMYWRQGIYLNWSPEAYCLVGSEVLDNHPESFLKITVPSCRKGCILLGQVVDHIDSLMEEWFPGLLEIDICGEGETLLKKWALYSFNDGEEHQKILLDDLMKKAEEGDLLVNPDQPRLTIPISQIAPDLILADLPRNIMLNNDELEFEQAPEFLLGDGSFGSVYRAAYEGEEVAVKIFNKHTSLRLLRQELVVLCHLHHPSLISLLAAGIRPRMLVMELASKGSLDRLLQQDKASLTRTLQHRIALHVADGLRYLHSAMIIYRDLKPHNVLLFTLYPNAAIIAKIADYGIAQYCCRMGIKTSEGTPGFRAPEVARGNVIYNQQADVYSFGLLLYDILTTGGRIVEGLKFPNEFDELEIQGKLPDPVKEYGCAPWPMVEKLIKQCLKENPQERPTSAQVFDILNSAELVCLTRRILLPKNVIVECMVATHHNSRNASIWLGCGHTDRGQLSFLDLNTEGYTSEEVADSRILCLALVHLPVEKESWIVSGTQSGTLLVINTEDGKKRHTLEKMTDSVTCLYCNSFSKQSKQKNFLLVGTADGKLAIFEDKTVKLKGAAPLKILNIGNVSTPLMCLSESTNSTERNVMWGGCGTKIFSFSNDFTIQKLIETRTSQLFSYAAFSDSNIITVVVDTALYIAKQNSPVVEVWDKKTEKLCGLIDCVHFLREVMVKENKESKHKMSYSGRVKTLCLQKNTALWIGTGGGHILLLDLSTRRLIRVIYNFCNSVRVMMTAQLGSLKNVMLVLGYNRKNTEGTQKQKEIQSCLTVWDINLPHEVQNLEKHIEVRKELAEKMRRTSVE

Compound	Ki [1]	IC50 [2]
COc1ccc(-c2nc(Nc3ccc(N(C)C)cc3)c3[nH]ncc3n2)cc1OC [Example #23, N1-(5-(3,4-dimethoxyphenyl)-1H-pyrazolo[4,3-d]pyrimidin-7-yl)-N4,N4-dimethylbenzene-1,4-diamine]	< 0.01 µM	0.01 to 0.1 µM
CN(C)c1ccc(Nc2nc(-c3ccsc3)nc3cn[nH]c23)cc1 [Example #75, N1,N1-dimethyl-N4-(5-(thiophen-3-yl)-1H-pyrazolo[4,3-d]pyrimidin-7-yl)benzene-1,4-diamine]	< 0.01 µM	0.01 to 0.1 µM
NS(=O)(=O)c1cccc(-c2nc(Nc3ccc(N4CCOCC4)cc3)c3[nH]ncc3n2)c1 [Example #239, 3-(7-((4-morpholinophenyl)amino)-1H-pyrazolo[4,3-d]pyrimidin-5-yl)benzenesulfonamide]	< 0.01 µM	0.1 to 1 µM
COc1ccc(Nc2nc(-c3ccccc3)nc3cn[nH]c23)cc1OC [Example #6, N-(3,4-dimethoxyphenyl)-5-phenyl-1H-pyrazolo[4,3-d]pyrimidin-7-amine]	< 0.01 µM	0.1 to 1 µM
O=C1COc2ccc(Nc3nc(-c4ccccc4)nc4cn[nH]c34)cc2N1 [Example #37, 6-((5-phenyl-1H-pyrazolo[4,3-d]pyrimidin-7-yl)amino)-2H-benzo[b][1,4]oxazin-3(4H)-one]	0.01 to 0.1 µM	0.01 to 0.1 µM
c1cc(-c2nc(Nc3ccc4c(c3)NCCO4)c3[nH]ncc3n2)cs1 [Example #84, N-(5-(thiophen-3-yl)-1H-pyrazolo[4,3-d]pyrimidin-7-yl)-3,4-dihydro-2H-benzo[b][1,4]oxazin-6-amine]	< 0.01 µM	0.01 to 0.1 µM
COc1ccc(-c2nc(Nc3ccc(N(C)C)cc3)c3[nH]ncc3n2)cc1 [Example #78, N1-(5-(4-methoxyphenyl)-1H-pyrazolo[4,3-d]pyrimidin-7-yl)-N4,N4-dimethylbenzene-1,4-diamine]	< 0.01 µM	0.1 to 1 µM
CN1Cc2ccc(Nc3nc(-c4cccs4)nc4cn[nH]c34)cc2C1 [Example #303, N-(2-methylisoindolin-5-yl)-5-(thiophen-2-yl)-1H-pyrazolo[4,3-d]pyrimidin-7-amine]	< 0.01 µM	0.1 to 1 µM
O=C1CCc2ccc(Nc3nc(-c4nccs4)nc4cn[nH]c34)cc2N1 [Example #186, 7-((5-(thiazol-2-yl)-1H-pyrazolo[4,3-d]pyrimidin-7-yl)amino)-3,4-dihydroquinolin-2(1H)-one]	< 0.01 µM	0.1 to 1 µM
Fc1cccc(F)c1-c1nc(Nc2ccc(N3CCOCC3)cc2)c2[nH]ncc2n1 [Example #282, 5-(2,6-difluorophenyl)-N-(4-morpholinophenyl)-1H-pyrazolo[4,3-d]pyrimidin-7-amine]	0.01 to 0.1 µM	0.1 to 1 µM
COc1ccc(Nc2nc(-c3ccc(N4CCCC4)nc3)nc3cn[nH]c23)cc1OC [Example #32, N-(3,4-dimethoxyphenyl)-5-(6-(pyrrolidin-1-yl)pyridin-3-yl)-1H-pyrazolo[4,3-d]pyrimidin-7-amine]	0.01 to 0.1 µM	0.1 to 1 µM
CNS(=O)(=O)c1cccc(Nc2nc(-c3cccs3)nc3cn[nH]c23)c1 [Example #265, N-methyl-3-((5-(thiophen-2-yl)-1H-pyrazolo[4,3-d]pyrimidin-7-yl)amino)benzenesulfonamide]	0.1 to 1 µM	0.1 to 1 µM
c1ccc(-c2nc(Nc3ccc4cn[nH]c4c3)c3[nH]ncc3n2)cc1 [Example #36, N-(1H-indazol-6-yl)-5-phenyl-1H-pyrazolo[4,3-d]pyrimidin-7-amine]	< 0.01 µM	< 0.01 µM
COc1ccc(-c2nc(Nc3ccc4cn[nH]c4c3)c3[nH]ncc3n2)cc1 [Example #79, N-(1H-indazol-6-yl)-5-(4-methoxyphenyl)-1H-pyrazolo[4,3-d]pyrimidin-7-amine]	< 0.01 µM	0.01 to 0.1 µM
COc1ccc(Nc2nc(-c3ccc(OC)c(OC)c3)nc3cn[nH]c23)cc1OC [Example #24, N,5-bis(3,4-dimethoxyphenyl)-1H-pyrazolo[4,3-d]pyrimidin-7-amine]	0.01 to 0.1 µM	0.1 to 1 µM
CC(=O)N1CCN(c2ccc(Nc3nc(-c4ncco4)nc4cn[nH]c34)cc2)CC1 [Example #204, 1-(4-(4-((5-(oxazol-2-yl)-1H-pyrazolo[4,3-d]pyrimidin-7-yl)amino)phenyl)piperazin-1-yl)ethan-1-one]	< 0.01 µM	0.1 to 1 µM
O=C(c1ccc(Nc2nc(-c3ccsc3)nc3cn[nH]c23)cc1)N1CCOCC1 [Example #157, morpholino(4-((5-(thiophen-3-yl)-1H-pyrazolo[4,3-d]pyrimidin-7-yl)amino)phenyl)methanone]	0.01 to 0.1 µM	0.1 to 1 µM
O=C1CCc2ccc(Nc3nc(-c4cccc(-c5nn[nH]n5)c4)nc4cn[nH]c34)cc2N1 [Example #196, 7-((5-(3-(2H-tetrazol-5-yl)phenyl)-1H-pyrazolo[4,3-d]pyrimidin-7-yl)amino)-3,4-dihydroquinolin-2(1H)-one]	< 0.01 µM	0.1 to 1 µM
O=C1CCCc2ccc(Nc3nc(-c4cccc(C(=O)O)c4)nc4cn[nH]c34)cc2N1 [Example #218, 3-(7-((2-oxo-2,3,4,5-tetrahydro-1H-benzo[b]azepin-8-yl)amino)-1H-pyrazolo[4,3-d]pyrimidin-5-yl)benzoic acid]	0.01 to 0.1 µM	0.1 to 1 µM
COc1ccccc1-c1nc(Nc2ccc3c(c2)NCCO3)c2[nH]ncc2n1 [Example #110, N-(5-(2-methoxyphenyl)-1H-pyrazolo[4,3-d]pyrimidin-7-yl)-3,4-dihydro-2H-benzo[b][1,4]oxazin-6-amine]	0.01 to 0.1 µM	0.1 to 1 µM
Cc1nc2cc(Nc3nc(-c4ccc5c(c4)NCCO5)nc4cn[nH]c34)ccc2[nH]1 [Example #302, 5-(3,4-dihydro-2H-benzo[b][1,4]oxazin-6-yl)-N-(2-methyl-1H-benzo[d]imidazol-5-yl)-1H-pyrazolo[4,3-d]pyrimidin-7-amine]	< 0.01 µM	0.1 to 1 µM
COc1ccc(Nc2nc(-c3cccc(F)c3)nc3cn[nH]c23)cc1OC [Example #234, N-(3,4-dimethoxyphenyl)-5-(3-fluorophenyl)-1H-pyrazolo[4,3-d]pyrimidin-7-amine]	< 0.01 µM	0.1 to 1 µM
COc1ccc(Nc2nc(-c3c(F)cccc3F)nc3cn[nH]c23)cc1OC [Example #281, 5-(2,6-difluorophenyl)-N-(3,4-dimethoxyphenyl)-1H-pyrazolo[4,3-d]pyrimidin-7-amine]	< 0.01 µM	0.1 to 1 µM
